Where “and” joins values, the source holds several entries; their conditions need not be identical. Equal entries are not always repeated.
What was measured:
KPMM2 cells = test system: KPMM2 cells
Procedure: The effects of anti-human IL-6 receptor antibody on sensitivity of KPMM2 cells to chemotherapeutic agents used for treatment of myeloma such as adriamycin (ADR, manufactured by Kyowa Hakko), vincristine (VCR, manufactured by Sigma Chemical Co.), and melphalan (L-PAM, manufactured by Sigma Chemical Co.) were evaluated.
KPMM2 is a multiple myeloma cell line derived from the ascites of a human patient with myeloma (see Japanese Unexamined Patent Publication (Kokai) No. 7-236475). […] The growth activity of the cell was evaluated by incorporation of ^3H-labeled thymidine (manufactured by Amersham) into the cell.
The KPMM2 cells that had been maintained were washed thoroughly with a fresh medium (RPMI1640 medium supplemented with 20% FBS), and then were adjusted to 4×10^5/ml, which was dispensed in 50 μl aliquots in a 96-well flat-bottomed microtiter plate (manufactured by Falcon). Furthermore, a medium containing a recombinant human IL-6 (Asagoe, Y. et al., Bio/Technology (1988) 6, 806-809), anti-human IL-6 receptor antibody hPM-1 (see the above reference example 1 or International Patent Application WO 92-15759), and the above chemotherapeutic agents or a fresh medium as control were added to make 200 μl in each well.
The plate was incubated at 37° C. for 4 days under the humidified condition in the presence of 5% CO2. At four hours before the end of incubation, 10 μl of ^3H-labeled thymidine solution (100 μCi/ml) was added to each well, and then incubated for more 4 hours. At the end of incubation, the cells were collected onto the glass filter (manufactured by Printed Filtermat A, WALLAC) using a harvester (Micro 96 Harvester, manufactured by SKATRON Instruments). The radioactivity incorporated into the cells was measured by a microbeta (1450 MicroBeta, manufactured by WALLAC).
The activity of growth inhibition on KPMM2 was expressed using the effect by a chemotherapeutic agent alone as the control. Using the incorporation of ^3H-labeled thymidine into the cell for each experimental group in which a each concentration of a chemotherapeutic agent was added as 100, the amount of ^3H-labeled thymidine incorporated into the cell in an experimental group in which anti-human IL-6 receptor antibody was simultaneously added was compared as an index.

[1] = Body weight change (toxicity) of myeloma-implanted mice, Example 3; assay type: in vivo, SCID mouse; conditions: melphalan administration (FIG. 16)
Procedure: For evaluation of antitumor effects, a xenograft model animal that was produced by implanting KPMM2 cells via the tail vein was used as in Working example 2. Thus, single-cell suspensions which were prepared by passing through a mesh KPMM2 cells that were minced after having been maintained in vivo were implanted at 0.2 ml per mouse via the tail vein (6×10^6 cells per mouse). The day when the cells were implanted was set at day 0.
With regard to anti-human IL-6 receptor antibody hPM-1, a stock solution that had been preserved at 6.57 mg/ml was diluted in sodium phosphate buffer to make each solution of 5, 1, 0.2, and 0.04 mg/ml. They were given to mice at 0.1 ml per 10 g body weight of mouse via the tail vein on day 14 to create the 50, 10, 2, and 0.4 mg/kg administration groups. The control group received the same buffer without antibody in a similar manner. […]
The experiment was carried out on the following 10 groups: (A) the melphalan and the antibody non-administration group; (B) the melphalan single-drug administration group; (C) the each dose of antibody single-drug administration group , 4 groups (50, 10, 2, 0.4 mg/kg weight); and, (D) the melphalan and the each dose of antibody combined administration group, 4 groups (50, 10, 2, 0.4 mg/kg weight). […] The amount of M protein was calculated as described in Example 2.

human IL-6 receptor [2] = target: T1, human IL-6 receptor (Homo sapiens, UniProt P08887); test: ELISA of binding to human IL-6 receptor
T1 sequence (P08887 20-468): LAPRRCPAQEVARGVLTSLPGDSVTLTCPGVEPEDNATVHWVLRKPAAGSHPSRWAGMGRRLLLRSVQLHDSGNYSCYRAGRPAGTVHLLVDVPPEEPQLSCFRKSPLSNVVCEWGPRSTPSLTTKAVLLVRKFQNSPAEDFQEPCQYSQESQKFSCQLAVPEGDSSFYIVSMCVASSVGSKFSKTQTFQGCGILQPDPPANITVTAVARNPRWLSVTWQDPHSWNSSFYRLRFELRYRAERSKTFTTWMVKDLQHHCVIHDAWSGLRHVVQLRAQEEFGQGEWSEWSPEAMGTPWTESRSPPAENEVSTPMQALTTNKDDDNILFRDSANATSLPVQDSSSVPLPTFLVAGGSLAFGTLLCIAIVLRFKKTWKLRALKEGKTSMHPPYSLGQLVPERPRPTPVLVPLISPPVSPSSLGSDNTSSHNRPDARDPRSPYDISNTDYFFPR
Excerpt: (§1) In order to express genes of L chain and H chain of the reshaped human PM-1 antibody thus constructed, DNA encoding the L chain or the H chain was separately inserted into a vector containing the human elongation factor 1α (HEF-1α) promoter, and a vector expressing the L chain or the H chain of the reshaped human PM-1 (hPM-1) antibody was constructed. By simultaneously inserting these two expression vectors into CHO cells, a cell line that produces reshaped human PM-1 antibody (hPM-1) was established.

human IL-6 receptor [3] = target: T1, human IL-6 receptor; test: Inhibition of binding of human IL-6 to human IL-6 receptor; conditions: compared with mouse antibody and chimeric antibody
Excerpt: as §1

Compound	relationship of growth index with the concentration of chemotherapeutic agent (KPMM2 cells; fixed concentration of anti-human IL-6 receptor antibody, 0.1 or 1 ng/ml IL-6 (FIG. 1 to 6))	toxicity (inhibition of body weight gain) [1]	growth index (3H-thymidine incorporation, chemotherapeutic agent alone = 100) (KPMM2 cells)	ability to bind to human IL-6 receptor (human IL-6 receptor [2])	inhibition of the binding of human IL-6 to human IL-6 receptor (human IL-6 receptor [3])
NC(Cc1ccc(N(CCCl)CCCl)cc1)C(=O)O (centres unmarked) [melphalan]	decreased with the increase in melphalan concentration	caused toxicity to mice and inhibited body weight gain			
hPM-1: reshaped human PM-1 antibody: CDRs of mouse anti-IL-6 receptor antibody PM-1 grafted to human antibody, produced in CHO cells			33.9 and 28.4	confirmed by ELISA	inhibited the binding of human IL-6 to human IL-6 receptor in a similar manner to that of mouse antibody and chimeric antibody
